Laboratory results reported in US9428508B2, “2,4-diamino-6,7-dihydro-5H-pyrrolo[2,3]pyrimidine derivatives as FAK/Pyk2 inhibitors” (Centaurus BioPharma Co., Ltd., priority 2011, dated 2016).

Assays:
FAK = FAK (Homo sapiens (Human), UniProt Q05397); test: Biochemical assay for FAK activity (LANCE TR-FRET, ULight-poly Glu,Ala,Tyr substrate); conditions: GST-tagged FAK, 120 min reaction
In short: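 GST-tagged FAK (2.5 nM working stock) with ULight-poly Glu,Ala,Tyr (666 nM stock) and ATP (33.3 μM stock) in Tris pH 7.5/MgCl2/DTT/CHAPS buffer with BSA, 120 min; EDTA-quenched. Phosphorylation read by TR-FRET with Eu-anti-phosphotyrosine (PY20) antibody after 60 min. Compounds tested as 12-point 3-fold dilutions.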

PYK2 = PYK2 (Homo sapiens (Human), UniProt Q14289); test: Biochemical assay for PYK2 activity (LANCE TR-FRET, ULight-poly Glu,Ala,Tyr substrate); conditions: GST-tagged PYK2, 40 min reaction
In short: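 GST-tagged human PYK2 (2 nM working stock) with ULight-poly Glu,Ala,Tyr (1:1:1) peptide (666 nM working stock) and ATP (46.6 μM working stock) in 40 mM Tris pH 7.5, MgCl2, 1 mM DTT, 1 mM CHAPS; 40 min reaction, EDTA quench. Phosphotyrosine read by LANCE Eu-anti-phosphotyrosine (PY20) TR-FRET after 60 min; 12-point 3-fold compound dilutions.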

Sequence of FAK (Q05397 whole entry): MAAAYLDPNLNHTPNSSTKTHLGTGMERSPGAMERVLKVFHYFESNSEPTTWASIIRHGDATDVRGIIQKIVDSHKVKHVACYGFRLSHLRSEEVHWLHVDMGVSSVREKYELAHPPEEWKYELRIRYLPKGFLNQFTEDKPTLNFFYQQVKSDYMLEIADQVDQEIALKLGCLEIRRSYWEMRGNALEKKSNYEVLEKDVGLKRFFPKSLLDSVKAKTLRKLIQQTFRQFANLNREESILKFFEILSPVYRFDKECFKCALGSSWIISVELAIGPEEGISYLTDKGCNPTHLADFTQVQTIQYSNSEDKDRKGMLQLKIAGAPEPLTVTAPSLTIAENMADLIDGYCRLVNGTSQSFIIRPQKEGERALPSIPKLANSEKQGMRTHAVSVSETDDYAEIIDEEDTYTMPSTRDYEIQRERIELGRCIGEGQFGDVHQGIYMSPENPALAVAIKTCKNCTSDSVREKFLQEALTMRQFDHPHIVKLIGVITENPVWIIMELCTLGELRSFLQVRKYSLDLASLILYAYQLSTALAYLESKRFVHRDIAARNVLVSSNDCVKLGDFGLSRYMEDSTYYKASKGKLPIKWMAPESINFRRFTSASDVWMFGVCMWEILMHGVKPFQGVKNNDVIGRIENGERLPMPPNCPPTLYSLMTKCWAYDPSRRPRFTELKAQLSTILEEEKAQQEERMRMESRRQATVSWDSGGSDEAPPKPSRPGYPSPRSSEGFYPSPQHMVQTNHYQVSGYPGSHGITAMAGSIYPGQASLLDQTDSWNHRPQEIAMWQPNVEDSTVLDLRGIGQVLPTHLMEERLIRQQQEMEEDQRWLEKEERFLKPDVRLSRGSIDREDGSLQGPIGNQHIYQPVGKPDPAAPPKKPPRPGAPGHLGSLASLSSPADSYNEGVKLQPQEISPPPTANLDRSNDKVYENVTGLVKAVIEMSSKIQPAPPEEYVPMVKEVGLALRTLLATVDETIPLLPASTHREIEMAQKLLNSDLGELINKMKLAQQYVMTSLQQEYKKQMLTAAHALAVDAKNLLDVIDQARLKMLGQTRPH
Sequence of PYK2 (Q14289 whole entry): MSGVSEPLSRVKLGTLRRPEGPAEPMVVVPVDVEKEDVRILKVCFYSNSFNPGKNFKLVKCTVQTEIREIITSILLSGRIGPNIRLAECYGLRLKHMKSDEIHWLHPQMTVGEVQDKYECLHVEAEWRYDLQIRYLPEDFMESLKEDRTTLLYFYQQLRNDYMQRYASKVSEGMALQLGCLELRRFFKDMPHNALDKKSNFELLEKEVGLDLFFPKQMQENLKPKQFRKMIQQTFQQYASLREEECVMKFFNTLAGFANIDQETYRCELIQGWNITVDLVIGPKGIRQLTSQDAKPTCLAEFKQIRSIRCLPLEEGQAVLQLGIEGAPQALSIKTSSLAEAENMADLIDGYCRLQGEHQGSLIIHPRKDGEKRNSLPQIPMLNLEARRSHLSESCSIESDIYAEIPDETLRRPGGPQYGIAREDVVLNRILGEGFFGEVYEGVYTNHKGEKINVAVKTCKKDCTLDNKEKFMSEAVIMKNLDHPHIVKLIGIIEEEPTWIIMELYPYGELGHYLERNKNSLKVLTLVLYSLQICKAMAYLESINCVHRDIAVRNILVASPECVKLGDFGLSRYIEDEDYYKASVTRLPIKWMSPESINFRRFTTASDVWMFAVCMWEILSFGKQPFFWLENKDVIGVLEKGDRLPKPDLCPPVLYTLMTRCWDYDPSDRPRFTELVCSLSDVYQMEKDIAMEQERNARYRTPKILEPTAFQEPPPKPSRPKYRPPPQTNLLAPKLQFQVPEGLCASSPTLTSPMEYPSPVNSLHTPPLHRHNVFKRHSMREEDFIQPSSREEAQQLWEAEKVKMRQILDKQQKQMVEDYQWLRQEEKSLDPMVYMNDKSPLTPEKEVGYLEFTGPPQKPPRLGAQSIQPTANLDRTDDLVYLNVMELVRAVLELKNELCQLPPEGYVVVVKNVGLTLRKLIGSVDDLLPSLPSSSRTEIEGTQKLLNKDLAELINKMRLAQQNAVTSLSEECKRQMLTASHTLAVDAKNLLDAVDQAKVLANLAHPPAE

Row | SMILES | IC50 (FAK) | IC50 (PYK2)
1 | COc1cc(N2CCOCC2)ccc1Nc1nc2c(c(Nc3ccccc3S(=O)(=O)N(C)C)n1)C(C)(C)CN2 [Example 111, 2-(2-(2-methoxy-4-morpholinophenylamino)-5,5-dimethyl-6,7-dihydro-5H-pyrrolo[2,3-d]pyrimidin-4-ylamino)-N,N-dimethylbenzenesulfonamide] | < 0.02 µM | < 0.02 µM
2 | CCC(C)NS(=O)(=O)c1ccccc1Nc1nc(Nc2ccc(N3CCOCC3)cc2OC)nc2c1C(C)(C)CN2 (centres unmarked) [Example 112, N-sec-butyl-2-(2-(2-methoxy-4-morpholinophenylamino)-5,5-dimethyl-6,7-dihydro-5H-pyrrolo[2,3-d]pyrimidin-4-ylamino)benzenesulfonamide] | < 0.02 µM | < 0.02 µM
3 | CCNS(=O)(=O)c1ccccc1Nc1nc(Nc2ccc(N3CCOCC3)cc2OC)nc2c1C(C)(C)CN2 [Example 113, N-ethyl-2-(2-(2-methoxy-4-morpholinophenylamino)-5,5-dimethyl-6,7-dihydro-5H-pyrrolo[2,3-d]pyrimidin-4-ylamino)benzenesulfonamide] | < 0.02 µM | < 0.02 µM
4 | COCCCNS(=O)(=O)c1ccccc1Nc1nc(Nc2ccc(N3CCOCC3)cc2OC)nc2c1C(C)(C)CN2 [Example 114, 2-(2-(2-methoxy-4-morpholinophenylamino)-5,5-dimethyl-6,7-dihydro-5H-pyrrolo[2,3-d]pyrimidin-4-ylamino)-N-(3-methoxypropyl)benzenesulfonamide] | < 0.02 µM | < 0.02 µM
5 | COCCNS(=O)(=O)c1ccccc1Nc1nc(Nc2ccc(N3CCOCC3)cc2OC)nc2c1C(C)(C)CN2 [Example 115, 2-(2-(2-methoxy-4-morpholinophenylamino)-5,5-dimethyl-6,7-dihydro-5H-pyrrolo[2,3-d]pyrimidin-4-ylamino)-N-(2-methoxyethyl)benzenesulfonamide] | < 0.02 µM | < 0.02 µM
6 | COc1cc(N2CCOCC2)ccc1Nc1nc2c(c(Nc3ccccc3S(=O)(=O)Nc3ccccc3)n1)C(C)(C)CN2 [Example 116, 2-(2-(2-methoxy-4-morpholinophenylamino)-5,5-dimethyl-6,7-dihydro-5H-pyrrolo[2,3-d]pyrimidin-4-ylamino)-N-phenylbenzenesulfonamide] | < 0.2 µM | < 0.5 µM
7 | COc1cc(N2CCOCC2)ccc1Nc1nc2c(c(Nc3ccccc3S(=O)(=O)NC(C)(C)C)n1)C(C)(C)CN2 [Example 117, N-tert-butyl-2-(2-(2-methoxy-4-morpholinophenylamino)-5,5-dimethyl-6,7-dihydro-5H-pyrrolo[2,3-d]pyrimidin-4-ylamino)benzenesulfonamide] | < 0.02 µM | < 0.02 µM
8 | COc1cc(N2CCOCC2)ccc1Nc1nc2c(c(Nc3ccccc3S(=O)(=O)NCC3CC3)n1)C(C)(C)CN2 [Example 118, N-(cyclopropylmethyl)-2-(2-(2-methoxy-4-morpholinophenylamino)-5,5-dimethyl-6,7-dihydro-5H-pyrrolo[2,3-d]pyrimidin-4-ylamino)benzenesulfonamide] | < 0.05 µM | < 0.05 µM
9 | COc1cc(N2CCOCC2)ccc1Nc1nc2c(c(Nc3ccccc3S(=O)(=O)NCCO)n1)C(C)(C)CN2 [Example 119, N-(2-hydroxyethyl)-2-(2-(2-methoxy-4-morpholinophenylamino)-5,5-dimethyl-6,7-dihydro-5H-pyrrolo[2,3-d]pyrimidin-4-ylamino)benzenesulfonamide] | < 0.5 µM | < 0.2 µM
10 | COc1cc(N2CCOCC2)ccc1Nc1nc2c(c(Nc3ccccc3S(=O)(=O)NCCN(C)C)n1)C(C)(C)CN2 [Example 120, N-(2-(dimethylamino)ethyl)-2-(2-(2-methoxy-4-morpholinophenylamino)-5,5-dimethyl-6,7-dihydro-5H-pyrrolo[2,3-d]pyrimidin-4-ylamino)benzenesulfonamide] | < 0.02 µM | < 0.05 µM
11 | COc1cc(N2CCOCC2)ccc1Nc1nc2c(c(Nc3ccccc3C(=O)N3CCCC3)n1)C(C)(C)CN2 [Example 121, (2-(2-(2-methoxy-4-morpholinophenylamino)-5,5-dimethyl-6,7-dihydro-5H-pyrrolo[2,3-d]pyrimidin-4-ylamino)phenyl)(pyrrolidin-1-yl)methanone] | < 0.2 µM | < 0.2 µM
12 | COc1cc(N2CCOCC2)ccc1Nc1nc2c(c(Nc3ccccc3N(C)S(C)(=O)=O)n1)C(C)(C)CN2 [Example 122, N-(2-(2-(2-methoxy-4-morpholinophenylamino)-5,5-dimethyl-6,7-dihydro-5H-pyrrolo[2,3-d]pyrimidin-4-ylamino)phenyl)-N-methylmethanesulfonamide] | < 0.05 µM | < 0.1 µM
13 | COc1cc(N2CCOCC2)ccc1Nc1nc2c(c(Nc3cccc(C)n3)n1)C(C)(C)CN2 [Example 123, N^2-(2-methoxy-4-morpholinophenyl)-5,5-dimethyl-N^4-(6-methylpyridin-2-yl)-6,7-dihydro-5H-pyrrolo[2,3-d]pyrimidine-2,4-diamine] | < 0.2 µM | < 0.5 µM
14 | COc1cc(N2CCOCC2)ccc1Nc1nc2c(c(Nc3ccccc3NC(C)=O)n1)C(C)(C)CN2 [Example 124, N-(2-(2-(2-methoxy-4-morpholinophenylamino)-5,5-dimethyl-6,7-dihydro-5H-pyrrolo[2,3-d]pyrimidin-4-ylamino)phenyl)acetamide] | < 0.2 µM | < 0.2 µM
15 | COc1cc(N2CCOCC2)ccc1Nc1nc2c(c(Nc3ccc(F)c(F)c3)n1)C(C)(C)CN2 [Example 125, N^4-(3,4-difluorophenyl)-N^2-(2-methoxy-4-morpholinophenyl)-5,5-dimethyl-6,7-dihydro-5H-pyrrolo[2,3-d]pyrimidine-2,4-diamine] | < 1 µM | > 1 µM
16 | CNC(=O)c1ccc2c(c1Nc1nc(Nc3ccc(N4CCOCC4)cc3OC)nc3c1C(C)(C)CN3)OCO2 [Example 126, 4-(2-(2-methoxy-4-morpholinophenylamino)-5,5-dimethyl-6,7-dihydro-5H-pyrrolo[2,3-d]pyrimidin-4-ylamino)-N-methylbenzo[d][1,3]dioxole-5-carboxamide] | < 1 µM | > 1 µM
17 | COc1cc(N2CCOCC2)ccc1Nc1nc2c(c(NC3CCCCC3N(C)S(C)(=O)=O)n1)C(C)(C)CN2 (centres unmarked) [Example 127, N-(2-(2-(2-methoxy-4-morpholinophenylamino)-5,5-dimethyl-6,7-dihydro-5H-pyrrolo[2,3-d]pyrimidin-4-ylamino)cyclohexyl)-N-methylmethanesulfonamide] | < 0.1 µM | < 0.1 µM
18 | CNC(=O)c1ccccc1Nc1nc(Nc2cccc3c2OCCO3)nc2c1C(C)(C)CN2 [Example 128, 2-(2-(2,3-dihydrobenzo[b][1,4]dioxin-5-ylamino)-5,5-dimethyl-6,7-dihydro-5H-pyrrolo[2,3-d]pyrimidin-4-ylamino)-N-methylbenzamide] | < 0.02 µM | < 0.02 µM
19 | CNC(=O)c1ccccc1Nc1nc(Nc2ccc(N3CCOCC3)c3c2OCCO3)nc2c1C(C)(C)CN2 [Example 129, 2-(5,5-dimethyl-2-(8-morpholino-2,3-dihydrobenzo[b][1,4]dioxin-5-ylamino)-6,7-dihydro-5H-pyrrolo[2,3-d]pyrimidin-4-ylamino)-N-methylbenzamide] | < 0.05 µM | < 0.1 µM
20 | CNC(=O)c1ccccc1Nc1nc(Nc2cc(OC)c(OC)c(OC)c2)nc2c1C(C)(C)CN2 [Example 130, 2-(5,5-dimethyl-2-(3,4,5-trimethoxyphenylamino)-6,7-dihydro-5H-pyrrolo[2,3-d]pyrimidin-4-ylamino)-N-methylbenzamide] | < 0.2 µM | < 0.2 µM
21 | CNC(=O)c1ccccc1Nc1nc(Nc2cccc3ccoc23)nc2c1C(C)(C)CN2 [Example 131, 2-(2-(benzofuran-7-ylamino)-5,5-dimethyl-6,7-dihydro-5H-pyrrolo[2,3-d]pyrimidin-4-ylamino)-N-methylbenzamide] | < 0.02 µM | < 0.02 µM
22 | CNC(=O)c1ccccc1Nc1nc(Nc2cc(C)nn2C)nc2c1C(C)(C)CN2 [Example 132, 2-(2-(1,3-dimethyl-1H-pyrazol-5-ylamino)-5,5-dimethyl-6,7-dihydro-5H-pyrrolo[2,3-d]pyrimidin-4-ylamino)-N-methylbenzamide] | < 0.02 µM | < 0.05 µM
23 | CCN1C(=O)CCCc2c1ccc(Nc1nc3c(c(Nc4ccccc4C(=O)NC)n1)C(C)(C)CN3)c2OC [Example 133, 2-(2-(1-ethyl-6-methoxy-2-oxo-2,3,4,5-tetrahydro-1H-benzo[b]azepin-7-ylamino)-5,5-dimethyl-6,7-dihydro-5H-pyrrolo[2,3-d]pyrimidin-4-ylamino)-N-methylbenzamide] | < 0.02 µM | < 0.05 µM
24 | CNC(=O)c1ccccc1Nc1nc(Nc2ccc3c(ccn3CCCN3CCOCC3)c2)nc2c1C(C)(C)CN2 [Example 134, 2-(5,5-dimethyl-2-(1-(3-morpholinopropyl)-1H-indol-5-ylamino)-6,7-dihydro-5H-pyrrolo[2,3-d]pyrimidin-4-ylamino)-N-methylbenzamide] | < 0.2 µM | < 0.2 µM
25 | CNS(=O)(=O)c1ccccc1Nc1nc(Nc2ccc(N3CCOCC3)cc2OC)nc2c1C1(CC1)CN2 [Example 135, 2-(2′-(2-methoxy-4-morpholinophenylamino)-6′,7′-dihydrospiro[cyclopropane-1,5′-pyrrolo[2,3-d]pyrimidine]-4′-ylamino)-N-methylbenzenesulfonamide] | < 0.05 µM | < 0.02 µM
